Molecular target: BlaC (β-lactamase) (Mycobacterium tuberculosis, UniProt P9WKD3, G144S)
Type: biochemical

SMILES: NC(=O)[C@@H]1CC[C@@H]2CN1C(=O)N2OS(=O)(=O)O [avibactam]
- activity of BlaC G132S in the presence of avibactam (Figure S13, not shown): we found BlaC G132S is also more sensitive to avibactam

Source: article PMC8383266 (Biochemistry, 2021)
